In patent US20260242738A1, “ALK5 INHIBITORS FOR EFFICIENT DERIVATION OF MESENCHYMAL STEM CELLS FROM EMBRYONIC STEM CELLS” (SCRIPPS HEALTH, priority 2022, published 2026):

Key:
pluripotent stem cells = settings: LLY-507 and AZD5153 combined, monolayer on Matrigel-coated plates; cited from earlier work
hiPSC = settings: CHIR99021 and TTNPB used together; cited from earlier work
HADC 100 ES-MSC = assay: Pellet culture chondrogenesis, histology and immunohistochemistry; format: cell-based, human; settings: HADC 100 ES-MSC, 3 weeks, Safranin-O, collagen type I and II
Method: Monolayer-expanded ES-MSC (passage 2-5) were detached using Accutase® and 0.5×10^6 cells in 0.5 ml of chondrogenic medium were centrifuged at 900 rpm (~770 G) for 5 minutes to form high-density pellets. At least 5-6 pellets, for each ES-MSC condition, were cultured in serum-free chondrogenic medium consisting of Dulbecco's Modified Eagle Medium (Mediatech Inc., Manassas, VA), 1×ITS supplement (Sigma-Aldrich, St. Louis, MO), 100 nM Dexamethasone (Sigma), 1.25 mg/ml human serum albumin (Bayer, Leverkusen, Germany), 100 μM ascorbic acid 2-phosphate (Sigma), 1% penicillin/streptomycin/gentamycin (PSG, Gibco, Carlsbad, CA), and 10 ng/ml TGFβ3 (PeproTech, Rocky Hill, NJ). Pellets for ex vivo implantation were cultured for 3 days before implantation; pellets for histologic or gene expression analysis were maintained in culture for 3 weeks with media changes every 3 to 4 days.
Cell pellets and explants were fixed in Z-Fix (3.7% formaldehyde, Anatech Ltd., Battle Creek, MI), processed for embedding in paraffin, and cut into 4 μm-thick sections. Sections were stained with Safranin-O and Fast Green to visualize glycosaminoglycan distribution in the tissues. Alzarin Red S staining was used to detect the presence of mineralized matrix.
For assessment of collagen types I and II, sections were pretreated with pepsin (Digest-All 3, Thermo Fisher Scientific) for 9 minutes at 37° C. in a humid chamber before incubation at 4° C. for 12 to 16 hours with the following primary antibodies: rabbit anti-human collagen type I antibody (Ab 34710, Abcam, Cambridge, MA) 1 μg/ml; or mouse anti-human collagen type II (II-II6B3, Hybridoma Bank, University of Iowa) 2 μg/ml. For color development, the ImmPRESS secondary DAB (brown) or AP (red) kits (Vector Laboratories, Burlingame, CA) was used. Isotype controls were used to monitor non-specific staining.

[1] = tested on: ex vivo osteoarthritic cartilage explants; assay: Ex vivo human osteoarthritic cartilage defect repair with fibrin-ECM constructs or pellets; format: cell-based; settings: implanted as hydrogel or pellets, 3 weeks, serum-free chondrogenic medium with TGFβ3 10 ng/ml
Method: Monolayer cultured ES-MSC were suspended in a hydrogel wafer composed of collagen II (Innovative Research Inc. Novi, MI), hyaluronate (Supartz FX sodium hyaluronate, Seikagaku Corp. Tokyo, Japan), chondroitin sulfate (Sigma-Aldrich) and fibrin (Baxter Healthcare, Deerfield, IL) at a density of 20×10^6 cells per ml. The fibrinogen and thrombin components were prepared separately. To each fibrinogen component, 2 mg/ml sodium hyaluronate, 2 mg/ml chondroitin sulfate and 6 mg/ml collagen II was added (2× concentration of final). Cells were added to the thrombin component at a density of 40×10^6 cells per ml. Thrombin and fibrinogen components in individual syringes were attached to a Baxter DUO mixing syringe and extruded to form the coagulated constructs. The constructs were either directly implanted into ex vivo cartilage tissue or coagulated in 6 well tissue culture plates for 4 to 8 minutes before 4-6 ml of chondrogenic medium was added. To prevent shrinkage of the constructs during culture, the gels were held on AdminPatch microneedle arrays (AdminMed, Sunnyvale, CA) for the duration of their culture.
Osteochondral tissues were obtained from patients ranging between 60 to 70 years of age undergoing total knee arthroplasty within 4-6 hours of surgery (approved by Scripps Institutional Review Board) as previous described. Cartilage disks (6 mm in diameter and ~2-3 mm thick) were harvested from the osteochondral specimens using a sterile dermal punch. The cartilage tissue was cultured in medium consisting of DMEM (Mediatech Inc., Manassas, VA) supplemented with 10% calf serum (Omega Scientific Inc., Tarzana, CA) and 1% Penicillin-Streptomycin-Gentamycin (Life Technologies, Carlsbad, CA). Cartilage disks were maintained in 6-well plates (2-4 per well) in 8 ml medium for 72 hours before creation of the surgical defect. A flame-sterilized stainless-steel burr was used create defects approximately 2×2 mm wide and 0.5 to 1 mm deep. These defects were filled with pellets or hydrogel constructs trimmed to size using 2 mm dermal biopsy punches. […]

[2] = tested on: ex vivo human meniscus tissue; assay: ES-MSC on growth factor conjugated collagen scaffolds implanted into ex vivo human meniscus defects; format: cell-based; settings: growth factor conjugated scaffold, 2 weeks in vitro, 5 weeks in ex vivo meniscus defect; ES-MSC from SB525334
Method: In a similar experiment, meniscus cartilage-like tissues produced by seeding ES-MSC derived from ALK-5 inhibitor SB525334 upon blow spun collagen scaffolds were implanted into ex vivo human meniscus defects. ES-MSC were seeded upon a glutaraldehyde crosslinked pneumatospun collagen type I scaffold (3.5×1 mm disks) that was conjugated with growth factors (TGFb1, TGFb3 or PDGFbb) or unconjugated (control). After 2 weeks in differentiation medium in vitro, the disks were implanted into 3.5 mm defects formed in ex vivo human meniscus tissue and cultured for 5 weeks.

## COc1nnc2ccc(N3CCC(c4ccc(OCCN5CCN(C)C(=O)[C@H]5C)cc4)CC3)nn12 [AZD5153]
Pluripotent stem cells
  induction of MSC phenotype: successfully induced MSC phenotype

## Cc1c[nH]c(-c2cnc(NCCNc3ccc(C#N)cn3)nc2-c2ccc(Cl)cc2Cl)n1 [CHIR99021]
hiPSC
  collagen type II immunocytochemical staining of chondroprogenitors: abundant collagen type II immunocytochemical staining

## O=C(NC1CCOCC1)c1ccc(-c2cc(-c3c[nH]nc3-c3ccccn3)ccn2)cc1 [GW788388]
HADC 100 ES-MSC
  cartilage-like tissue formation in high density pellets: also produced cartilage-like tissue
[1]
  cartilaginous neo-tissue formation in ex vivo osteoarthritic explants: formed equally well

## Cc1cn(CCN2CCN(c3ccccc3-c3cc(C#N)cc(C(=O)NCCCN4CCCC4)c3)CC2)c2ccccc12 [LLY-507]
Pluripotent stem cells
  induction of MSC phenotype: successfully induced MSC phenotype

## C/C(=C\c1ccc(C(=O)O)cc1)c1ccc2c(c1)C(C)(C)CCC2(C)C [TTNPB]
hiPSC
  collagen type II immunocytochemical staining of chondroprogenitors: abundant collagen type II immunocytochemical staining

## TGFβ1: growth factor conjugated to pneumatospun collagen type I scaffold
[2]
  collagen type of neo-meniscus like ECM: higher in collagen type II

B1: TGFb3: growth factor conjugated to pneumatospun collagen type I scaffold (protein, UniProt P10600 301-412, looked up)
Transforming growth factor …: ALDTNYCFRNLEENCCVRPLYIDFRQDLGWKWVHEPKGYYANFCSGPCPYLRSADTTHSTVLGLYNTLNPEASASPCCVPQDLEPLTILYYVGRTPKVEQLSNMVVKSCKCS
modifications: conjugated to collagen type I scaffold
[2]
  collagen type of neo-meniscus like ECM: higher in collagen type II

B2: PDGFbb: growth factor conjugated to pneumatospun collagen type I scaffold (protein, UniProt P01127 82-190, looked up)
Platelet-derived growth …: SLGSLTIAEPAMIAECKTRTEVFEISRRLIDRTNANFLVWPPCVEVQRCSGCCNNRNVQCRPTQVQLRPVQVRKIEIVRKKPIFKKATVTLEDHLACKCETVAAARPVT
modifications: BB homodimer; conjugated to collagen scaffold
[2]
  collagen type of neo-meniscus like ECM: both collagen type I and II rich ECM
